Test results as given in US20170128407A1, “NOVEL FORMULATIONS” (priority 2015, published 2017).
In brackets after ≈: the same amount, converted by molar mass. Where two headings read alike, the source gives them in different places.

Columns and labels:
[1] = Chemical stability of BPO in wash formulations, shelf life prediction; type: physicochemical; details: wash formulations with increasing sorbitol concentrations
Experimental: BPO stability in the formulations of the present invention were assessed over time at 25° C./60% RH and 30° C./65% RH using environmentally controlled chambers. Specifically formulations containing 2.5% BPO or 10% BPO in glass vials were placed on stability, and monitored for BPO degradation.
Chemical stability of the BPO in surfactant based wash products is a challenge due to increased solubility of the BPO in these systems.

[2] = BPO solubility in water and in binary mixtures with surfactants; details: water
Description: The concentration of all surfactants was fixed at 6% w/w active.

[3] = in water and propylene glycol, storage; cited from earlier work
[4] = cited from earlier work

SMILES	effect on BPO stability (benzoic acid generated) [1]	solubility [2] [µg/mL]	stability of benzoyl peroxide in suspension (dispersed form) [3]	half-life of BPO in solution in water ([4]; pH 4) [h]	half-life of BPO in solution in water ([4]; pH 7) [h]
OC[C@@H](O)[C@@H](O)[C@H](O)[C@@H](O)CO [sorbitol, D-Sorbitol]	improve BPO stability				
O=C(OOC(=O)c1ccccc1)c1ccccc1 [BPO, Benzoyl peroxide]		3 (≈ 12.4 µM)	not degraded after 90 days	11.87	5.20
